In patent US10420770B2, “Compositions and methods for treating dementia” (EIP Pharma, LLC, priority 2016, dated 2019):

Legend:
interleukin-8 (IL-8) = test: CSF cytokine measurement (Mesoscale Discovery), IL-8, 6-week study; type: in vivo, human; conditions: high exposure group by plasma AUC(0-8) on Day 1
Procedure: Cytokine measurements of CSF samples were done to assess the balance of pro-inflammatory versus anti-inflammatory cytokines. The t-helper type 1/t-helper type 2 (TH1/TH2) multiplex cytokine (IFN-γ, IL-1β, IL-2, IL-4, IL-5, IL-8, IL-10, IL-12p70, IL-13, TNFα ) panel by Mescoscale Discovery were utilized to inform on effects on the relative balance of pro-inflammatory cytokines (e.g. IL-1β, TNFα) versus anti-inflammatory cytokines (e.g., IL-10).
Target engagement was assessed through the evaluation of the effect of drug treatment on CSF biomarkers. CSF was collected at 6 time-points over 24 hours at baseline (the 24 hours prior to first dose) and again at 6 time-points over 24 hours near the end of treatment on Day 40. The samples were evaluated by the Mesoscale Discovery ELISA platform for multiple cytokines ((IFN-γ, IL-1β, IL-2, IL-4, IL-5, IL-8, IL-12 protein 70, IL-13, TNFα, and CSF) and for amyloid-beta peptides (Aβ 38/40/42).

[1] = test system: patients with mild cognitive impairment (MCI) due to Alzheimer's disease (AD) or with mild AD; test: Hopkins Verbal Learning Test-Revised (HVLT-R), 6-week study (Example 2); type: in vivo, human; conditions: for HVLT-R Delayed Recall change from averaged baseline, Maximum / HVLT-R Delayed Recall change from averaged baseline, Median / HVLT-R Delayed Recall change from averaged baseline, Minimum / HVLT-R RDI change from averaged baseline, Maximum / HVLT-R RDI change from averaged baseline, Median / HVLT-R RDI change from averaged baseline, Minimum / HVLT-R Retention change from averaged baseline, Maximum / HVLT-R Retention change from averaged baseline, Median / HVLT-R Retention change from averaged baseline, Minimum / HVLT-R Total Recall change from averaged baseline, Maximum / HVLT-R Total Recall change from averaged baseline, Median / HVLT-R Total Recall change from averaged baseline, Minimum: n=8; for HVLT-R Delayed Recall change from averaged baseline, Arithmetic Mean / HVLT-R Retention change from averaged baseline, Arithmetic Mean / HVLT-R Total Recall change from averaged baseline, Arithmetic Mean: overall pharmacodynamic population n=8
Procedure: The Hopkins Verbal Learning Test-Revised (HVLT-R) was utilized to assess episodic memory. In this test, 12 specific words from a list were provided verbally, and the subject was asked to recall as many words as possible. Two scores are calculated: (i) Total (Immediate) Recall Score (range: 0-36): combined score of three consecutive trials immediately following provision of words and (ii) Delayed Recall Score (range: 0-12): Number of words recalled when subject was asked 20 to 25 minutes after initial trials to recall as many of the words originally provided. A strength of the HVLT-R is that six different validated version exist that each incorporate a different set of words. Due to the use of these different versions during the course of a clinical study, there is essentially no practice effect with repeated administration (Benedict, R. H. B. et al, “Hopkins Verbal Learning Test-Revised: Normative Data and Analysis of Inter-Form and Test-Retest Reliability” The Clinical Neuropsychologist, 12(1): 43-55 (1998)).

[2] = Example 2 study (N = 8), HLVT-R

## O=c1ncn2nc(Sc3ccc(F)cc3F)ccc2c1-c1c(Cl)cccc1Cl [VX-745]
interleukin-8 (IL-8)
  CSF IL-8, Day 41 vs baseline at matched time points: trend towards lower CSF IL-8
[1]; Day 14
  HVLT-R Delayed Recall change from averaged baseline, Maximum: 4
  HVLT-R Delayed Recall change from averaged baseline, Median: 1.0
  HVLT-R Delayed Recall change from averaged baseline, Minimum: −3
  HVLT-R RDI change from averaged baseline, Maximum: 5
  HVLT-R RDI change from averaged baseline, Median: −0.3
  HVLT-R RDI change from averaged baseline, Minimum: −3
  HVLT-R Retention change from averaged baseline, Maximum: 35%
  HVLT-R Retention change from averaged baseline, Median: 6.3%
  HVLT-R Retention change from averaged baseline, Minimum: −37%
  HVLT-R Total Recall change from averaged baseline, Maximum: 6
  HVLT-R Total Recall change from averaged baseline, Median: 0.0
  HVLT-R Total Recall change from averaged baseline, Minimum: −2
  HVLT-R Delayed Recall change from averaged baseline, Arithmetic Mean: 0.8
  HVLT-R Retention change from averaged baseline, Arithmetic Mean: 3.8%
  HVLT-R Total Recall change from averaged baseline, Arithmetic Mean: 0.6
[1]; Day 40
  HVLT-R Delayed Recall change from averaged baseline, Maximum: 7
  HVLT-R Delayed Recall change from averaged baseline, Median: 1.0
  HVLT-R Delayed Recall change from averaged baseline, Minimum: 0
  HVLT-R RDI change from averaged baseline, Maximum: 6
  HVLT-R RDI change from averaged baseline, Median: 1.3
  HVLT-R RDI change from averaged baseline, Minimum: −11
  HVLT-R Retention change from averaged baseline, Maximum: 71%
  HVLT-R Retention change from averaged baseline, Median: 6.5%
  HVLT-R Retention change from averaged baseline, Minimum: −14%
  HVLT-R Total Recall change from averaged baseline, Maximum: 10
  HVLT-R Total Recall change from averaged baseline, Median: 4.5
  HVLT-R Total Recall change from averaged baseline, Minimum: −3
  HVLT-R Delayed Recall change from averaged baseline, Arithmetic Mean: 2.1
  HVLT-R Retention change from averaged baseline, Arithmetic Mean: 15.3%
  HVLT-R Total Recall change from averaged baseline, Arithmetic Mean: 3.5
[1]; [2]
  Calculated within-subject treatment effect size (Cohen's d), Delayed Recall: .86
  Calculated within-subject treatment effect size (Cohen's d), Immediate Recall: .69
[1]; during 6-week treatment
  Median increase in HVLT-R Total Recall score: 4.5 (range: −2.5 to +9.5)
[1]; week 6, Baseline 19.1 (±1.5), p=0.015
  HVLT-R Mean Total Recall score: 22.6 (±2.1)
[1]; week 6, baseline 5.4 (±0.6), P=0.028
  HVLT-R Delayed Recall score: 7.5 (±1.1)
